Assay results published in patent US9420770B2, “Methods of modulating thrombocytopenia and modified transgenic pigs” (Indiana University Research and Technology Corporation, priority 2009, dated 2016).

Legend:
Assay type in all cases: cell-based, pig
LSEC = assay: High-throughput fluorescent 96-well phagocytosis assay (ELISA based fluorescent assay) with platelets and LSEC; details: compound at 5 mg/ml, 0.5 mg/ml or none, FIG. 9 panel B
Protocol: A high-throughput fluorescent 96-well phagocytosis assay was performed using human and baboon platelets and LSEC. The compounds of interest asialofeutin or feutin were added to the samples. Experiments were performed with reduced calcium or in the presence of the chelating agent, EDTA.

[1] = tested on: Domestic and GTKO/hDAF LSEC cultures; assay: Inhibition of platelet phagocytosis assay: fetuin / asialofetuin, CFSE-labeled human platelets; details: LSECs from domestic or GTKO/hDAF pigs; 0.5-20 μg/ml; FIG. 15 panel A
Protocol: Fetuin, a glycoprotein composed of sialic acid terminated galactose β1, −4 N-acetylglucosamine (Galβ) oligosaccharides, and asialofetuin, a derivative of fetuin lacking the terminal sialic acid saccharides and with exposed Galβ oligosaccharides were utilized to evaluate platelet binding. Domestic (n=2-5) and GTKO/hDAF (n=5) LSEC cultures were established. Cultures were incubated with 0.5, 2.5, 5, 10 or 20 μg/ml fetuin or asialofetuin. After incubations, CFSE-labeled human platelets were added to the cultures. Platelet binding and phagocytosis was measured using a spectromax plate reader. The percent of platelet binding was calculated.

porcine primary LSECs = assay: Platelet phagocytosis assay with siRNA treated LSECs; details: 48 hours after siRNA treatment, n=3
Protocol: Primary LSECs were cultured in black walled-clear bottomed, cell culture treated 96-well plates (approximately 100,000 cells/well). The plated cells were incubated at 37° C. and 5% CO2 for four, five or six days as indicated. Four million CFSE-labeled platelets were added to wells in 96 well plates containing primary LSEC and media. Plates were centrifuged at 2000×g to synchronize the wells. At predetermined time points, the incubations were stopped. Duplicate wells for each time point were washed with PBS three times. After washing, the cells were incubated with 4% paraformaldehyde-PBS solution for 20 minutes to fix the cells. The wells were washed with PBS. 50 μl PBS was placed in each well. After obtaining the timepoints, the plates were read for fluorescence using a Spectra Max M2e plate reader (Molecular Devices Co.) set to read 9 different points within each well. Wells with LSECs and without CFSE-labeled platelets were used to determine the auto-fluorescence of LSECs. Data points from at least three separate porcine LSEC experiments were averaged and the standard deviation was obtained.
siRNA sense and antisense oligos were designed to the mRNA sequence of ASGR1 (FIG. 17C). […] ASGR1 transcript levels were determined by quantitative PCR. ASGR1 protein levels were analyzed. […]

ASGR1 mRNA = assay: siRNA reduction of ASGR1: transcript levels by quantitative PCR; details: 48 hours after siRNA treatment
Protocol: RNA extraction was performed on cultured LSEC and tissues harvested from domestic and GTKO/hDAF pigs. Total RNA was extracted from LSEC and low-fiber tissues using the RNeasy Minikit (Qiagen, Valencia Calif.). RNA from fiber-rich tissue was isolated using the RNeasy fibrous tissue kit (Qiagen, Valencia Calif.). RNA quality was assessed using an Agilent 2100 Bioanalyzer (Biotechnology Research and Training Center IUPUI). Reverse transcription was performed using Quantitect Reverse Transcription kit (Qiagen, Valencia Calif.). Presence/absence experiments of endogenous mRNA were performed on a 9700 Applied Biosystems™ cycler. Products were run using Quantitect Sybr Green (Qiagen, Valencia Calif.). Endogenous mRNA levels were measured by real-time quantitative PCR analysis on a STEP-ONE PLUS (Applied Biosystems™, Carlsbad Calif.) real time PCR system and comparative CT analysis was performed. Gene expression assays for porcine ASGR1 and β-actin AI6RMY and SSO 3376160-u1 (Applied Biosystems™, Carlsbad Calif.) were used. […]
(§1) siRNA sense and antisense oligos were designed to the mRNA sequence of ASGR1 (FIG. 17C). […] ASGR1 transcript levels were determined by quantitative PCR. ASGR1 protein levels were analyzed.

ASGR1 protein = assay: siRNA reduction of ASGR1: protein levels by immunoblotting; details: 48 hours after siRNA treatment
Protocol: LSECs were resuspended in Laemmli sample buffer with protease arrest (G-bioscience™, Maryland Heights Mo.). Samples were electrophoresed on SDS-polyacrylamide gels (SDS-PAGE). Polypeptides were transferred to membranes for immunoblot or lectin blot analysis. Membranes were blocked by incubation with 50% Odyssey blocking buffer (LI-COR Biosciences™, Lincoln Nebr.) in phosphate buffered saline (PBS) for approximately one hour. Membranes were incubated with anti-ASGR1 (Santa Cruz Biotechnologies™, Santa Cruz Calif.), anti-GAPDH (Millipore™, Billerica Mass., MAB374), anti-β-actin (Rockland Immunochemicals for Research, Gilbertsville Pa.), or anti-CD42b (Santa Cruz Biotechnologies™, SC-13467) according to the manufacturer's recommended protocol. Membranes were also incubated with ECA-biotin (EY Laboratories San Mateo Calif.) in a calcium containing buffer. Following primary antibody or lectin binding, membranes were washed. Membranes were incubated with the appropriate secondary antibody or streptavidin conjugated to either IRDye 800CW or IRDye680CW (LI-Cor Biosciences™). […] Protein bands were quantified by intensity using the LI-COR software.
as §1

Substance | inhibition of binding of baboon platelets (RFI) (LSEC) | inhibition of binding of human platelets (RFI) (LSEC) | percent of human platelet binding by LSECs [1] | platelet phagocytosis compared to siGenome transfected LSECs (porcine primary LSECs; GTKO/hDAF LSECs) | platelet phagocytosis compared to siGenome transfected LSECs (porcine primary LSECs; domestic LSECs) | ASGR1 mRNA levels relative to non-specifically treated cells (siGenome) (ASGR1 mRNA; GTKO/hDAF LSECs) | ASGR1 mRNA levels relative to non-specifically treated cells (siGenome) (ASGR1 mRNA; domestic LSECs) | ASGR1 protein levels relative to non-specifically treated cells (siGenome) (ASGR1 protein; GTKO/hDAF LSECs) | ASGR1 protein levels relative to non-specifically treated cells (siGenome) (ASGR1 protein; domestic LSECs)
asialofetuin | inhibits binding | inhibits binding | significantly reduced |  |  |  |  |  | 
ASGR1 siRNA: double-stranded siRNA to ASGR1 mRNA; sense strand SEQ ID NO:11, antisense strand SEQ ID NO:12 (sense CAGCAUGCAGGGAGGAAAUUU; antisense AUUUCCUCCCUGCAUGCUGUU; chemistry not given here) |  |  |  | 69% | 79% | 20% | 56% | 87% | 80%
Fetuin | not feutin inhibits binding | not feutin inhibits binding |  |  |  |  |  |  | 
